{
  "source": "patent EP0975351B1",
  "about": "“TREATMENT OF MULTIPLE SCLEROSIS THROUGH INGESTION OF COPOLYMER-1” (YEDA RESEARCH AND DEVELOPMENT CO. LTD., priority 1997, dated 1998)",
  "key": {"spleen cells": {"system": "spleen cells", "test": "Proliferation assay of spleen cells in response to GPBP, fed mice", "assay_type": "cell-based", "details": "spleen cells of orally fed mice, 10-11 days after EAE induction (Figure 2)", "experimental": "(§1) Induction and Assessment of EAE - Mice were injected with 200 µg GPBP emulsified in an equal volume of complete Freund's adjuvant (CFA) containing 4 mg/ml mycobacterium tuberculosis (H37Ra) (Difco Lab, Detroit, Mich.). The emulsion at a total volume of 0.1 ml was injected into all four footpads. Immediately after and 24 hours later, pertussis toxin (250ng/mouse) (Sigma) was injected intravenously.\n(§2) Induction of Oral Tolerance - Mice were fed with 250 µg GPBP or glatiramer acetate dissolved in phosphate buffered saline (PBS) on days -7, -5, -3, 0, 2, 4 and 6 by gastric intubation with an 18-gauge stainless steel feeding needle (Thomas). EAE was induced on day 0.\nProliferation Assay - The proliferation response of spleen cells was tested 10-11 days after EAE induction as described above. Cells from 3 animals in each group were pooled and cultured in triplicate (5x10^5 mouse cells and 2x10^5 rat cells) in microtiter plates with various antigen concentrations (GPBP) in a final volume of 0.2ml. Microtiter plates contained RPMI 1640 (available from Sigma Biochemicals, St. Louis, Missouri) culture medium supplemented with 1% autologous serum. After 72 hr. of incubation, cells were pulsed with 1 µCi {^3H}-thymidine for 18 hr and then harvested onto filter papers and radioactivity was counted."}, "[1]": {"system": "spleen cell cultures derived from mice", "test": "Cytokine secretion assay of spleen cells from fed mice (ELISA)", "assay_type": "cell-based", "details": "versus PBS fed control", "experimental": "as §1, §2\nCytokine Secretion Assay - Spleens were removed 10-11 days after EAE induction and cells of 3 mice from each group were pooled. Cells (5x10^6/ml) were cultured in duplicates in 24 well plate in RPMI 1640 supplemented with 10% FCS (Fetal Calf Serum) in the presence or absence of antigen (GPBP 100 Fg/ml). Supematants were harvested after 24-40 hr of culture. Quantitative ELISA for IL-2, IFN-γ, IL-4, IL-6 and IL-10 were performed using paired mAbs specific for the corresponding cytokines (Pharmingen, La Jolla, CA) according to the manufacturer's instructions."}, "[2]": {"system": "T-cell line derived from spleens of glatiramer acetate fed rats", "test": "Cytokine assay of T-cell line from spleens of fed rats (ELISA)", "assay_type": "cell-based", "details": "rat line cultured with glatiramer acetate as antigen (Figure 6)", "experimental": "Isolation of glatiramer acetate specific T cell lines - Lewis rats were fed 5 times with 1 mg glatiramer acetate and (SJUJ x BALB/c)F, mice 7 times with 250 µg glatiramer acetate, at intervals of 2-3 days. Four to twelve days after the last feeding animals were sacrificed and their spleens removed.\nSpleen cells of 3 animals were pooled and incubated (50 x 10^6/plate) with glatiramer acetate (500 µg) in medium containing 1 % autologous serum for 4 days. Every 14-21 days cells (4-6 x 10^6/plate) were restimulated by 3 days exposure to copolymer-1 (500 µg) presented on syngeneic irradiated (3000 rad) rat thymocytes (100 x 10^6/plate) or mouse splenocytes (50 x 10^6/plate). Stimulation was followed by propagation in 10% supernatant of Con A activated normal mouse spleen cells as T cell growth factor (TCGF).\nCytokine Assay - T cells of rat line (0.5 x 10^6/ml) were incubated with irradiated thymocytes (10 x 10^6) with or without the indicated antigen (50µg glatiramer acetate; 5µg Con A). Cells were cultured for 24 hours in RPMI 1640 supplemented with 10% FCS for IL-2, TNFα, IL-4 and IL-10-measurements and in serum free medium - DCCM-1 (Biological Industries, Kibbutz Beit Haemek, Israel) for 72 hours for TGFβ measurement.\nCytokine levels in supernatants were measured in a quantitative ELISA using pairs of monoclonal antibodies specific for the corresponding cytokines."}, "EAE [3]": {"system": "EAE", "test": "Induction of EAE in Rhesus monkeys, oral enteric-coated capsules, clinical scoring (Example 3)", "assay_type": "in vivo", "experimental": "Glatiramer acetate was provided by Teva Pharmaceutical Industries Ltd. in an enteric-coated hard gelatin capsule comprising two dosage levels: 1 mg of glatiramer acetate and 20 mg of glatiramer acetate. Each dosage level was formulated using mannitol, and coated with Eudragit L30D55. Placebo or control capsules comprised capsules containing 5 mg of sugar.\n3 Rhesus monkeys were treated as follows: One monkey served as control and was fed with placebo capsules (containing 5mg glucose only). The second and third monkeys were fed with glatiramer acetate containing capsules at a dose of 1mg/feeding and 20mg/feeding, respectively. Animals were fed every other day for a total of 10 feedings: 5 times prior to disease induction (immunization on day 0) and then 5 times after immunization.\nDisease was induced on day 0 by an intradermal injection of 8mg bovine - MBP and 3 mg H37Ra M. tuberculosis in FCA into the hind footpads, total injected volume between 0.1 and 0.15 ml per footpad. The animals were followed for clinical manifestations of EAE, a variety of serum and CSF immunological markers and spinal cord and cranial MRI's."}, "TGF-beta": {"system": "TGF-beta", "test": "Reaction of MBP-bound plasma material with anti-TGF-beta antibody", "assay_type": "in vivo, Rhesus Monkeys", "details": "plasma material bound to MBP", "description": "Recombinant human TGF-beta reacted with the anti-TGF-beta, but not 3C9 antibody. Table 5: Assay for MBP-specific T suppressor Inducer factora"}, "EAE [4]": {"system": "EAE", "test": "EAE in Rhesus monkeys, enteric-coated versus cracked coating capsules (Example 4)", "assay_type": "in vivo", "details": "for protection from the disease: Fig. 10", "experimental": "Six monkeys were treated and subsequent analyses performed substantially according to the protocol described for Example 3 hereinabove.\nControl placebo-fed animal 18746 was fed with capsules containing glucose. Animal 18586 was fed with 1 mg glatiramer acetate in capsules with cracked […]. Animal 18586 was fed with 1 mg glatiramer acetate in capsules with cracked enteric coating. Animal 18639 was fed with 20 mg glatiramer acetate in capsules with cracked enteric coating. […] Animal 18962 was fed with 20 mg glatiramer acetate in intact enteric coated capsules.\nThe schedule of feeding, disease induction and follow-up were substantially the same as those of Example 3 described hereinabove."}, "[5]": {"system": "experimental allergic encephalomyelitis (EAE)", "details": "EAE induced by MSCH, MBP, PLP, MOG in a variety of species; cited from earlier work"}, "[6]": {"details": "capsules with cracked enteric coating, 1 mg (animal 18586) and 20 mg (animal 18639)"}},
  "data": [
    {"substance": "glatiramer acetate", "values": [
      {"measurement": "proliferative responses to GPBP", "setting": "spleen cells", "result": "almost complete inhibition"},
      {"measurement": "IFN-γ produced in response to GPBP stimulation", "setting": "[1]", "result": "lower than in control groups"},
      {"measurement": "IL-2 produced in response to GPBP stimulation", "setting": "[1]", "result": "lower than in control groups"},
      {"measurement": "cytokine secretion response of T-cell line", "setting": "[2]", "result": "secreted IL-2, some IL-10 and TGFβ but not TNFα or IL-4"},
      {"measurement": "day of first (minimal) symptoms", "setting": "EAE [3]; animal 18497, 1mg/feeding, 10 feedings", "result": 25, "unit": "days"},
      {"measurement": "time until clinical signs dropped to zero", "setting": "EAE [3]; animal 18497, after day 33 fed 20mg capsules 5 times on alternate days, remained zero until day 60", "result": "≤ 3", "unit": "days"},
      {"measurement": "clinical symptoms", "setting": "EAE [3]; animal 18498, 20mg/feeding, 10 feedings, 60 day observation period, placebo animal score 4+ , sacrificed day 28", "result": "did not show any significant clinical symptoms"},
      {"measurement": "anti-TGF-beta", "setting": "TGF-beta; animal 18497, 1mg/feeding then 20mg capsules after day 33, day +41", "result": 0.85, "unit": "OD405nm"},
      {"measurement": "anti-TGF-beta", "setting": "TGF-beta; animal 18497, 1mg/feeding, day +6", "result": "none"},
      {"measurement": "anti-TGF-beta", "setting": "TGF-beta; animal 18497, 1mg/feeding, day +13", "result": 0.71, "unit": "OD405nm"},
      {"measurement": "anti-TGF-beta", "setting": "TGF-beta; animal 18497, 1mg/feeding, day +27", "result": 0.65, "unit": "OD405nm"},
      {"measurement": "anti-TGF-beta", "setting": "TGF-beta; animal 18498, 20mg/feeding, day +6", "result": "none"},
      {"measurement": "anti-TGF-beta", "setting": "TGF-beta; animal 18498, 20mg/feeding, day +13", "result": 0.35, "unit": "OD405nm"},
      {"measurement": "anti-TGF-beta", "setting": "TGF-beta; animal 18498, 20mg/feeding, day +27", "result": 0.47, "unit": "OD405nm"},
      {"measurement": "anti-TGF-beta", "setting": "TGF-beta; animal 18498, 20mg/feeding, day +41", "result": 0.45, "unit": "OD405nm"},
      {"measurement": "time to death from disease manifestations", "setting": "EAE [4]; [6]", "result": "2 to 3", "unit": "days"},
      {"measurement": "protection from the disease", "setting": "EAE [4]; [6]", "result": "not protected from the disease"},
      {"measurement": "protection from the disease", "setting": "EAE [4]; intact enteric coated capsules, 1 mg, 10 mg, 20 mg (animals 18724, 18810, 18962)", "result": "fully protected from the disease"},
      {"measurement": "signs of EAE", "setting": "EAE [4]; intact enteric coated capsules, 1 mg, 10 mg, 20 mg, until day 60 when sacrificed", "result": "developed no signs of EAE until day 60"},
      {"measurement": "suppression of EAE", "setting": "[5]", "result": "suppress experimental allergic encephalomyelitis (EAE)"}
    ]}
  ]
}
